From patent US20250320213A1, “Nitrogen-Containing Heterocyclic Compounds” (Pfizer Inc., priority 2024, published 2025)
Like-named read-outs stand apart in the source and are kept apart here.

Biological target: T1, STAT6 (Homo sapiens, UniProt P42226)
T1 construct: stably transfected HaCaT keratinocyte cell line, which expresses NanoLuc luciferase reporter gene under the transcriptional control of the STAT6 responsive promoter; endogenous in cells; host or cells: HaCaT keratinocyte reporter cell line (stably transfected with a NanoLuc reporter)
T1 sequence (P42226 1-847): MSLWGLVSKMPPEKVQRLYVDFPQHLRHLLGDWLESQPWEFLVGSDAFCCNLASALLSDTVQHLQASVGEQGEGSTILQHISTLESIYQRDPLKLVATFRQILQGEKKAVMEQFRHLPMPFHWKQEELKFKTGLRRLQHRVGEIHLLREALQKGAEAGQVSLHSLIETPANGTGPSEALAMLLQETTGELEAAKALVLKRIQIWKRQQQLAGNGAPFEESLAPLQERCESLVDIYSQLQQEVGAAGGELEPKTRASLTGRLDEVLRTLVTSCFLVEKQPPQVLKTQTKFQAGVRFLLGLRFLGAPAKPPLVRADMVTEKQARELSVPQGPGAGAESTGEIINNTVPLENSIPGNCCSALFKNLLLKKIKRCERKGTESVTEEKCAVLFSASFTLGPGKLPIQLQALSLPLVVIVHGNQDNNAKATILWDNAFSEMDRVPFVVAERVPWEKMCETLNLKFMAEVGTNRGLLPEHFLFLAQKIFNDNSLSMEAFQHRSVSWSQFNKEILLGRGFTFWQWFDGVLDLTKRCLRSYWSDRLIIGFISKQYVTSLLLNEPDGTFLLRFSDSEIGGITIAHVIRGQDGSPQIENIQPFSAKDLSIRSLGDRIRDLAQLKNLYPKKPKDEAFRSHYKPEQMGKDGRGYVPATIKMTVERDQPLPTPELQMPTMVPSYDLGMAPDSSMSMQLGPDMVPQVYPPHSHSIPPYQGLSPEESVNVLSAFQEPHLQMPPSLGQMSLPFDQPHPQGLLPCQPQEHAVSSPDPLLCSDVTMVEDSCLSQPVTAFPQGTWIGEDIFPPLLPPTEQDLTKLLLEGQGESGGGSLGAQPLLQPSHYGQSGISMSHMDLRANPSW
Test: STAT6 Reporter Luciferase Assay (IL-13 stimulated HaCaT keratinocyte NanoLuc reporter cells)
Type: cell-based
Conditions: read-out: Reporter EC50
Description: Pharmacological measurements of STAT6 transcriptional activity through the IL-13-IL-13 receptor/IL-4 receptor pathway were made with a stably transfected HaCaT keratinocyte cell line, which expresses NanoLuc luciferase reporter gene under the transcriptional control of the STAT6 responsive promoter for IL-13Ra2. The readout of the STAT6 activity utilized Promega Nano-Glo Luciferase assay kit.
The reporter cells were cultured in a growth media comprised of DMEM High Glucose, no calcium and no glutamine, 10% heat inactivated fetal bovine serum (HI FBS), 1% 100× Glutamax, and 100 U/mL Penicillin-Streptomycin (units of penicillin in 1 mL of streptomycin). Seven thousand cells were plated in 25 microliter (μL) per well in a 384-well, white bottom, tissue culture plate. Cells were cultured overnight at 37° C. The next day, test compounds (solubilized and serially diluted in DMSO, in an 11 point, 4-fold dilution series in duplicate) were spotted, 60 nanoliters (nL) per well, into a 384 well v-bottom polypropylene plate. Thirty μL per well of 37° C. dosing media (Dulbecco's modified eagle medium (DMEM) High Glucose, no calcium and no glutamine with 2% HI FBS) was added to the compound plate. Growth media was removed from the cell plate, and the cells were washed with DPBS. Twenty μL per well of compounds diluted in dosing media were transferred from the compound plate to the cell plate and the compounds were further diluted with an additional 15 μL of dosing media in the cell plate: the cell plate was incubated for two hours at 37° C. After two hours, STAT6 activity was stimulated with the addition of 5 μL per well of IL-13 (R&D Systems) in dosing media with a final concentration of 0.12 nM IL13. Cells were incubated at 37° C. for 4 hours to allow for reporter gene expression, then all media was removed from the plate. The cell plates were treated with assay buffer and Luciferase substrate from Nano-Glo Luciferase Assay Kit for 15 min and then measured for luminescence on an EnVision 2105 multilabel reader (PerkinElmer).

[1] = IL-13 stimulated HaCaT STAT6 NanoLuc reporter cells

| SMILES | EC50 [1] [µM] | EC50 (STAT6 NanoLuc luciferase reporter, IL-13 stimulated HaCaT keratinocyte cells) [µM] |
| --- | --- | --- |
| CC(C)n1nc(C(=O)NCc2ccc(NC(=O)N(C)C)cc2)c2c1CCN(c1ccc(C(=O)N3CC4(COCC(=O)N4)C3)cn1)C2 [Example 288, N-(4-(3,3-dimethylureido)benzyl)-1-isopropyl-5-(5-(6-oxo-8-oxa-2,5-diazaspiro[3.5]nonane-2-carbonyl)pyridin-2-yl)-4,5,6,7-tetrahydro-1H-pyrazolo[4,3-c]pyridine-3-carboxamide] | 1.64 | – |
| Cc1cc(C)c2c(n1)CN(C(=O)c1ccc(N3CCc4c(c(C(=O)NCc5ccc(NC(=O)N(C)C)cc5)nn4C(C)C)C3)nc1)C2 [Example 368, 5-(5-(2,4-dimethyl-6,7-dihydro-5H-pyrrolo[3,4-b]pyridine-6-carbonyl)pyridin-2-yl)-N-(4-(3,3-dimethylureido)benzyl)-1-isopropyl-4,5,6,7-tetrahydro-1H-pyrazolo[4,3-c]pyridine-3-carboxamide] | 0.005 | – |
| Cc1nn(C)c(=O)n1-c1ccc(N2Cc3c(C(=O)NCc4ccc(NC(=O)N5CCN(C)CC5)cc4)nn(C(C)C)c3[C@@H](C)C2)nc1 [Example 613, (S)-5-(5-(1,3-dimethyl-5-oxo-1,5-dihydro-4H-1,2,4-triazol-4-yl)pyridin-2-yl)-1-isopropyl-7-methyl-N-(4-(4-methylpiperazine-1-carboxamido)benzyl)-4,5,6,7-tetrahydro-1H-pyrazolo[4,3-c]pyridine-3-carboxamide] | 0.003 | – |
| CC(C)n1nc(C(=O)NCc2ccc(NC(=O)N(C)C)cc2)c2c1CCN(c1ccc(C(=O)N3CCc4ccccc4C3)cn1)C2 [Example 435, N-(4-(3,3-dimethylureido)benzyl)-1-isopropyl-5-(5-(1,2,3,4-tetrahydroisoquinoline-2-carbonyl)pyridin-2-yl)-4,5,6,7-tetrahydro-1H-pyrazolo[4,3-c]pyridine-3-carboxamide] | 0.01 | – |
| CC(C)n1nc(C(=O)NCc2ccc(NC(=O)N(C)C)cc2)c2c1CCN(c1ccc(C(=O)N3C[C@H]4COC[C@H]4C3)cn1)C2 [Example 289, N-(4-(3,3-dimethylureido)benzyl)-5-(5-((3aR,6aS)-hexahydro-1H-furo[3,4-c]pyrrole-5-carbonyl)pyridin-2-yl)-1-isopropyl-4,5,6,7-tetrahydro-1H-pyrazolo[4,3-c]pyridine-3-carboxamide] | 0.312 | – |
| CC(C)n1nc(C(=O)NCc2ccc(NC(=O)N(C)C)cc2)c2c1CCN(c1ccc(C(=O)N3C[C@@H]4OC(=O)N(C)[C@@H]4C3)cn1)C2 (racemic) [Example 334, rac-N-(4-(3,3-dimethylureido)benzyl)-1-isopropyl-5-(5-((3aR,6aS)-3-methyl-2-oxohexahydro-2H-pyrrolo[3,4-d]oxazole-5-carbonyl)pyridin-2-yl)-4,5,6,7-tetrahydro-1H-pyrazolo[4,3-c]pyridine-3-carboxamide] | 0.176 | – |
| CC(C)n1nc(C(=O)NCc2ccc(NC(=O)N3CCC[C@@H](N(C)C)C3)c(F)c2)c2c1[C@@H](C)CN(c1ccc(C(=O)N(C)C)cc1)C2 [Example 682, (S)-N-(4-((R)-3-(dimethylamino)piperidine-1-carboxamido)-3-fluorobenzyl)-5-(4-(dimethylcarbamoyl)phenyl)-1-isopropyl-7-methyl-4,5,6,7-tetrahydro-1H-pyrazolo[4,3-c]pyridine-3-carboxamide] | 0.004 | – |
| CC(C)n1nc(C(=O)NCc2ccc(NC(=O)N(C)C)cc2)c2c1CCN(c1ccc(C(=O)N3Cc4cncnc4C3)cn1)C2 [Example 408, 5-(5-(6,7-dihydro-5H-pyrrolo[3,4-d]pyrimidine-6-carbonyl)pyridin-2-yl)-N-(4-(3,3-dimethylureido)benzyl)-1-isopropyl-4,5,6,7-tetrahydro-1H-pyrazolo[4,3-c]pyridine-3-carboxamide] | 0.039 | – |
| CC(C)n1nc(C(=O)NCc2ccc(NC(=O)N(C)C)cc2)c2c1CCN(c1ccc(C(=O)N3CCC(C)(C#N)C3)cn1)C2 (stereo not shown) [Example 240, 5-(5-(3-cyano-3-methylpyrrolidine-1-carbonyl)pyridin-2-yl)-N-(4-(3,3-dimethylureido)benzyl)-1-isopropyl-4,5,6,7-tetrahydro-1H-pyrazolo[4,3-c]pyridine-3-carboxamide] | 3.63 | – |
| CC(C)n1nc(C(=O)NCc2ccc(NC(=O)N(C)C)cc2)c2c1CCN(c1ccc(C(=O)N3Cc4ccccc4C3)cn1)C2 [Example 442, N-(4-(3,3-dimethylureido)benzyl)-5-(5-(isoindoline-2-carbonyl)pyridin-2-yl)-1-isopropyl-4,5,6,7-tetrahydro-1H-pyrazolo[4,3-c]pyridine-3-carboxamide] | 0.002 | – |
| COCC1(N)CCN(C(=O)Nc2ccc(CNC(=O)c3nn(C(C)C)c4c3CN(c3ccc(C(=O)N(C)C)cc3)C[C@@H]4C)cc2)C1 (single isomer, unassigned) [Example 672, (S)-N-(4-((R*)-3-amino-3-(methoxymethyl)pyrrolidine-1-carboxamido)benzyl)-5-(4-(dimethylcarbamoyl)phenyl)-1-isopropyl-7-methyl-4,5,6,7-tetrahydro-1H-pyrazolo[4,3-c]pyridine-3-carboxamide] | 0.001 | – |
| COC[C@H]1CCCN1C(=O)c1ccc(N2CCc3c(c(C(=O)NCc4ccc(NC(=O)N(C)C)cc4)nn3C(C)C)C2)nc1 [Example 225, (R)-N-(4-(3,3-dimethylureido)benzyl)-1-isopropyl-5-(5-(2-(methoxymethyl)pyrrolidine-1-carbonyl)pyridin-2-yl)-4,5,6,7-tetrahydro-1H-pyrazolo[4,3-c]pyridine-3-carboxamide] | 0.644 | – |
| CC(C)n1nc(C(=O)NCc2ccc(NC(=O)N(C)C)cc2)c2c1CCN(c1ccc(C(=O)N3CC(=O)NCC3(C)C)cn1)C2 [Example 328, 5-(5-(2,2-dimethyl-5-oxopiperazine-1-carbonyl)pyridin-2-yl)-N-(4-(3,3-dimethylureido)benzyl)-1-isopropyl-4,5,6,7-tetrahydro-1H-pyrazolo[4,3-c]pyridine-3-carboxamide] | 0.266 | – |
| CC(C)n1nc(C(=O)NCc2ccc(NC(=O)N3CCN(C)C4(CC4)C3)c(F)c2)c2c1[C@@H](C)CN(c1ccc(C(=O)N(C)C)cc1)C2 [Example 648, (S)-5-(4-(dimethylcarbamoyl)phenyl)-N-(3-fluoro-4-(4-methyl-4,7-diazaspiro[2.5]octane-7-carboxamido)benzyl)-1-isopropyl-7-methyl-4,5,6,7-tetrahydro-1H-pyrazolo[4,3-c]pyridine-3-carboxamide] | 0.001 | – |
| CC(C)n1nc(C(=O)NCc2ccc(NC(=O)N(C)C)cc2)c2c1CCN(c1ccc(C(=O)N3CCC(O)CC3)cn1)C2 [Example 295, N-(4-(3,3-dimethylureido)benzyl)-5-(5-(4-hydroxypiperidine-1-carbonyl)pyridin-2-yl)-1-isopropyl-4,5,6,7-tetrahydro-1H-pyrazolo[4,3-c]pyridine-3-carboxamide] | 0.31 | – |
| CC(C)n1nc(C(=O)NCc2ccc(NC(=O)N3C[C@H]4CC[C@@H]3C4)cc2)c2c1CCN(c1ccc(C(=O)N(C)C)cn1)C2 (racemic) [Example 143, rac-N-(4-((1R,4S)-2-azabicyclo[2.2.1]heptane-2-carboxamido)benzyl)-5-(5-(dimethylcarbamoyl)pyridin-2-yl)-1-isopropyl-4,5,6,7-tetrahydro-1H-pyrazolo[4,3-c]pyridine-3-carboxamide] | – | 0.011 |
